Test results taken from article PMC7462985, “Inhibitors of BRAF dimers using an allosteric site” (Nature Communications, 2020).

Key:
[1] = tested on: A375 cells (BRAF^V600E monomers); experiment: p-ERK inhibition by western blot; conditions: A375 cells
BRAF^V600E = BRAF^V600E (Homo sapiens, UniProt P15056, V600E); experiment: SelectScreen Z'-LYTE kinase activity assay; assay type: biochemical; set-up: purchased Invitrogen (SelectScreen service); conditions: 100 μM ATP
Procedure: (§1) BRAF kinase assays were performed using the Z’-LYTE™ enzymatic assay (Invitrogen, USA). […] Titrations were performed using a 1:3 dilution. Assays were performed using SelectScreen (Invitrogen).

BRAF^WT = target: T1, BRAF^WT (Homo sapiens, UniProt P15056); experiment: SelectScreen Z'-LYTE kinase activity assay; assay type: biochemical; conditions: 100 μM ATP
T1 construct: purchased Invitrogen (SelectScreen service)
Procedure: as §1

[2] = tested on: RAS^MUT/BRAF^WT melanoma or lung cancer cells (SKMEL-30, SKMEL-2, CALU6); experiment: ERK signaling inhibition by western blot; conditions: RAS^MUT/BRAF^WT cells, 1 h

T1 sequence (P15056 whole entry): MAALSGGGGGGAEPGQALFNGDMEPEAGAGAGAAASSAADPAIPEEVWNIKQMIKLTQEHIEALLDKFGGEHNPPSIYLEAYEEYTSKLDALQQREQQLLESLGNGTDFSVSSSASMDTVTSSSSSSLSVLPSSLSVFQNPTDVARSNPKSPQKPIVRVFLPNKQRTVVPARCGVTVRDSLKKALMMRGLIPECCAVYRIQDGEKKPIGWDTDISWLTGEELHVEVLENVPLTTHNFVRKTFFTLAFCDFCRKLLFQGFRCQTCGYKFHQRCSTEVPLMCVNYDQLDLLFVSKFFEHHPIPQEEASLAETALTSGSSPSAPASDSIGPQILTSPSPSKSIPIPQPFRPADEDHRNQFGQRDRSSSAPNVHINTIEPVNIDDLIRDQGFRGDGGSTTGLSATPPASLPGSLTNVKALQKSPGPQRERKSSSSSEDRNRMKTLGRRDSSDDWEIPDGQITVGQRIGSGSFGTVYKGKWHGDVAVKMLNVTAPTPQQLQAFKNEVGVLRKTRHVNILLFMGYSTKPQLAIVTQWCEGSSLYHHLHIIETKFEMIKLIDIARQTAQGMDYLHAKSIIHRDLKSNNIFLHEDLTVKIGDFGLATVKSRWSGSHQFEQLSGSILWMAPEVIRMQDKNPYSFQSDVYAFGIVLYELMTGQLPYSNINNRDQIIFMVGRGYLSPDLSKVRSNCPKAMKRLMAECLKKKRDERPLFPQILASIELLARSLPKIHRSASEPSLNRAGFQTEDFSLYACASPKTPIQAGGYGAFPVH
Sequence of BRAF^V600E (P15056 whole entry V600E): as the sequence (P15056 whole entry) above, with V600E counted along it

| IC50 (BRAF^V600E) | IC50 (BRAF^WT) | Structure (SMILES) | inhibitory activity for BRAF^V600E monomers in comparison to PHI1 (in words) ([1]; 1 h) | concentration that robustly inhibits ERK signaling ([1]; 3 hrs, immunoblot) | effect on p-ERK levels (in words) [2] |
| --- | --- | --- | --- | --- | --- |
| 35 ± 2.8 nM | 598 ± 113 nM | CCc1cc(N2CCC(NCc3ccc(NC(=O)c4ccc(C)c(C#Cc5cnc6cccnn56)c4)cc3C(F)(F)F)CC2)ncn1 [PHI2] | increased |  |  |
|  |  | CCCS(=O)(=O)Nc1ccc(F)c(C(=O)c2c[nH]c3ncc(-c4ccc(Cl)cc4)cc23)c1F [Vemurafenib] |  | 0.3 µM | enhances p-ERK levels |
